The record followed here is ChEMBL document CHEMBL4043253, “Synthesis of novel vitamin K derivatives with alkylated phenyl groups introduced at the ω-terminal side chain and evaluation of their neural differentiation activities” (Bioorg Med Chem Lett, 2017).

In data set [1] the test system is Neural stem cell. Nature of the data set: Induction of neuronal differentiation in C57BL/6J mouse neural stem cells assessed as expression of Map2 at 1 uM administered every 2 days for 4 days by CF594/DAPI immunostaining based fluorescence microscopic microscopic analysis. The format is functional.
For data set [2], the system named is PC-12. Nature of the data set: Cytotoxicity against rat PC12 cells by MTT assay. The format is cell-based.
In data set [3] the test system is Neural stem cell. Nature of the data set: Induction of neuronal differentiation in C57BL/6J mouse neural stem cells assessed as Map2 mRNA expression at 1 uM measured after 4 days by RT-PCR analysis. The format is functional, cell-based.
For data set [4], the system named is PC-12. The data set is described as follows: Induction of neurite elongation in rat PC12 cells assessed as […] mRNA expression at 1 uM. Format: functional, cell-based.

Molecules are shown by their SMILES. Active and inactive are the calls of the source. No cut-off for these calls is given here.

Turning to `CC1=C(C/C=C(\C)CC/C=C(\C)Cc2cccc(C(C)(C)C)c2)C(=O)c2ccccc2C1=O`, the result in the data set with Neural stem cell [1] and with Neural stem cell [3] was Active. Also, the Activity result in the data set on PC-12 [2] is given as “Non-Toxic”.
As to `CC1=C(C/C=C(\C)CC/C=C(\C)Cc2ccc(C)cc2C)C(=O)c2ccccc2C1=O`, the Activity entry with PC-12 [2] is given as “Non-Toxic”.
On the same count and under the same terms, as for `CC1=C(C/C=C(\C)CC/C=C(\C)CC/C=C(\C)Cc2ccc(C)c(C)c2)C(=O)c2ccccc2C1=O`, the entry is “Non-Toxic”; as for `CC1=C(C/C=C(\C)CC/C=C(\C)Cc2cc(C)cc(C)c2)C(=O)c2ccccc2C1=O`, “Non-Toxic”.
Regarding `CC1=C(C/C=C(\C)CC/C=C(\C)Cc2cccc(C)c2C)C(=O)c2ccccc2C1=O`, the outcome in the data set on Neural stem cell [1] was inactive. In addition, the Activity entry with PC-12 [2] was “Non-Toxic”. Besides, in the data set with Neural stem cell [3], the outcome was Active.
`CC1=C(C/C=C(\C)CC/C=C(\C)CC/C=C(\C)Cc2ccc(C)cc2C)C(=O)c2ccccc2C1=O`: the Activity entry with PC-12 [2] was “Non-Toxic”.
On the same count and under the same terms, as for `CC1=C(C/C=C(\C)CC/C=C(\C)CC/C=C(\C)Cc2cc(C)cc(C)c2)C(=O)c2ccccc2C1=O`, the entry is “Non-Toxic”.
Consider `CC1=C(C/C=C(\C)CC/C=C(\C)Cc2ccc(C)c(C)c2)C(=O)c2ccccc2C1=O`, for which, in the data set on Neural stem cell [1], the result was inactive. In addition, in the data set on PC-12 [2], the Activity entry is given as “Non-Toxic”. The outcome in the data set on Neural stem cell [3] was Active.
For `CC1=C(C/C=C(\C)CC/C=C(\C)CC/C=C(\C)Cc2c(C)cc(C)cc2C)C(=O)c2ccccc2C1=O`, in the data set on PC-12 [2], the Activity entry was “Non-Toxic”.
Still for that read-out and setting: in the case of `CC1=C(C/C=C(\C)CC/C=C(\C)Cc2c(C)cc(C)cc2C)C(=O)c2ccccc2C1=O` it was “Non-Toxic”.
On the same count and under the same terms, in the case of `CC1=C(C/C=C(\C)CC/C=C(\C)CC/C=C(\C)Cc2cccc(C)c2C)C(=O)c2ccccc2C1=O` it was “Non-Toxic”.
On to `CC(C)=CCC/C(C)=C/CC/C(C)=C/CC/C(C)=C/CC1=C(C)C(=O)c2ccccc2C1=O` [MENATETRENONE], for which the Activity result in the data set on PC-12 [2] is recorded as “Non-Toxic”. In addition, the result with PC-12 [4] was inactive. The result in the data set with Neural stem cell [3] was Active.
As to `CC1=C(C/C=C(\C)CC/C=C(\C)CC/C=C(\C)Cc2cccc(C(C)(C)C)c2)C(=O)c2ccccc2C1=O`, the result with Neural stem cell [1] and in the data set on Neural stem cell [3] was Active. In the data set on PC-12 [2], the Activity result is on record as “Non-Toxic”.
